# Source: ChEMBL document CHEMBL5634127, “Synthesis of novel rhodamine type Anthrone Spiro-lactam (ASL) analogues and evaluation of antiviral activity against dengue and chikungunya viruses” (Eur J Med Chem, 2023)
# The source made the active and inactive calls. The rule behind the calls is not given here.
# Assays:
# [1] = Cytotoxicity against green monkey Vero cells incubated for 5 days by MTT assay; assay type: toxicity, cell-based; settings: chlorocebus sabaeus, time 5 day
# [2] = test system: Dengue virus; test: Antiviral activity against Dengue virus infected in green monkey Vero cells assessed as reduction in colony forming unit incubated for 1 hr after the virus infection and measured after 120 hrs by focus forming unit assay; assay type: functional, organism-based; settings: time 121.0 hrs
# [3] = test system: Chikungunya virus; test: Antiviral activity against Chikungunya virus infected in green monkey Vero cells assessed as reduction in viral growth at 100 uM incubated for 1 hr along with virus infection and measured after 24 hrs by focus forming unit assay; assay type: functional, organism-based; settings: time 25.0 hrs
# [4] = test system: Dengue virus; test: Antiviral activity against Dengue virus infected in green monkey Vero cells assessed as reduction in colony forming unit at 100 uM incubated for 1 hr after the virus infection and measured after 120 hrs by focus forming unit assay; assay type: functional; settings: time 121 hrs
# [5] = test system: Dengue virus; test: Antiviral activity against Dengue virus infected in green monkey Vero cells assessed as reduction in viral titer at 100 uM incubated for 1 hr after the virus infection and measured after 120 hrs by focus forming unit assay (reference value: 6.134 log10FFU/ml); assay type: functional; settings: time 121 hrs
# [6] = test system: Chikungunya virus; test: Antiviral activity against Chikungunya virus infected in green monkey Vero cells assessed as reduction in viral growth at 100 uM preincubated for 1 hr with compound followed by virus infection and measured after 24 hrs by focus forming unit assay; assay type: functional, organism-based; settings: time 25.0 hrs
# [7] = Cytotoxicity against green monkey Vero cells assessed as cell viability at 0.78 to 100 uM incubated for 5 days by MTT assay relative to control; assay type: toxicity, cell-based; settings: chlorocebus sabaeus, dose 0.78-100 µM, time 5 day, read-out: Activity
# [8] = test system: Chikungunya virus; test: Antiviral activity against Chikungunya virus infected in green monkey Vero cells assessed as reduction in viral growth at 50 uM incubated for 1 hr along with virus infection and measured after 24 hrs by focus forming unit assay; assay type: functional, organism-based; settings: time 25.0 hrs
# [9] = test system: Chikungunya virus; test: Antiviral activity against Chikungunya virus infected in green monkey Vero cells assessed as reduction in viral growth at 50 uM preincubated for 1 hr with compound followed by virus infection and measured after 24 hrs by focus forming unit assay; assay type: functional, organism-based; settings: time 25.0 hrs
# [10] = test system: Dengue virus; test: Antiviral activity against Dengue virus infected in green monkey Vero cells assessed as reduction in viral titer at 50 uM incubated for 1 hr after the virus infection and measured after 120 hrs by focus forming unit assay (reference value: 6.134 log10FFU/ml); assay type: functional; settings: time 121 hrs
# [11] = test system: Dengue virus; test: Antiviral activity against Dengue virus infected in green monkey Vero cells assessed as reduction in colony forming unit at 50 uM incubated for 1 hr after the virus infection and measured after 120 hrs by focus forming unit assay; assay type: functional; settings: time 121 hrs
# [12] = test system: Chikungunya virus; test: Antiviral activity against Chikungunya virus infected in green monkey Vero cells assessed as reduction in viral growth incubated for 1 hr after the virus infection and measured after 24 hrs by focus forming unit assay; assay type: functional, organism-based; settings: time 25.0 hrs
# [13] = test system: Chikungunya virus; test: Antiviral activity against Chikungunya virus infected in green monkey Vero cells assessed as reduction in colony forming unit at 50 uM incubated for 1 hr after the virus infection and measured after 24 hrs by focus forming unit assay; assay type: functional; settings: time 25 hrs
# [14] = test system: Dengue virus; test: Antiviral activity against Dengue virus infected in green monkey Vero cells assessed as reduction in viral titer at 25 uM incubated for 1 hr after the virus infection and measured after 120 hrs by focus forming unit assay (reference value: 6.134 log10FFU/ml); assay type: functional; settings: time 121 hrs
# [15] = test system: Chikungunya virus; test: Antiviral activity against Chikungunya virus infected in green monkey Vero cells assessed as reduction in viral growth at 6.25 uM incubated for 1 hr along with virus infection and measured after 24 hrs by focus forming unit assay; assay type: functional, organism-based; settings: time 25.0 hrs
# [16] = test system: Chikungunya virus; test: Antiviral activity against Chikungunya virus infected in green monkey Vero cells assessed as reduction in viral growth at 6.25 uM preincubated for 1 hr with compound followed by virus infection and measured after 24 hrs by focus forming unit assay; assay type: functional, organism-based; settings: time 25.0 hrs
# [17] = test system: Chikungunya virus; test: Antiviral activity against Chikungunya virus infected in green monkey Vero cells assessed as reduction in viral growth at 3.125 uM preincubated for 1 hr with compound followed by virus infection and measured after 24 hrs by focus forming unit assay; assay type: functional, organism-based; settings: time 25.0 hrs
# [18] = test system: Chikungunya virus; test: Antiviral activity against Chikungunya virus infected in green monkey Vero cells assessed as reduction in viral growth at 3.125 uM incubated for 1 hr along with virus infection and measured after 24 hrs by focus forming unit assay; assay type: functional, organism-based; settings: time 25.0 hrs
# [19] = test system: Dengue virus; test: Antiviral activity against Dengue virus infected in green monkey Vero cells assessed as reduction in colony forming unit incubated for 1 hr along with virus infection and measured after 120 hrs by focus forming unit assay; assay type: functional, organism-based; settings: time 121.0 hrs
# [20] = test system: Dengue virus; test: Antiviral activity against Dengue virus infected in green monkey Vero cells assessed as reduction in colony forming unit at 12.5 uM incubated for 1 hr along with virus infection and measured after 120 hrs by focus forming unit assay (reference value: 5.187 log10FFU/ml); assay type: functional; settings: time 121 hrs
# [21] = test system: Chikungunya virus; test: Antiviral activity against Chikungunya virus infected in green monkey Vero cells assessed as reduction in viral growth at 12.5 uM incubated for 1 hr along with virus infection and measured after 24 hrs by focus forming unit assay; assay type: functional, organism-based; settings: time 25.0 hrs
# [22] = test system: Chikungunya virus; test: Antiviral activity against Chikungunya virus infected in green monkey Vero cells assessed as reduction in viral growth at 12.5 uM preincubated for 1 hr with compound followed by virus infection and measured after 24 hrs by focus forming unit assay; assay type: functional, organism-based; settings: time 25.0 hrs
Structure (SMILES),CC50 at 120 h [1],Activity [2],"viability at 120 h, up to 100 µM [7]",Activity [8],Activity [9],Remaining viral titer [10],also measured
COc1cc2c(cc1OC)C1(c3cc(OC)c(OC)cc3C2=O)c2cc(OC)c(OC)cc2C(=O)N1/N=C/c1ccccc1,> 100 µM,Dose-Dependent Effect,≥ 90%,,,,Activity [3]: inactive; Activity [4]: >=1 log10CFU; Activity [5]: 5.03 log10FFU/ml; Activity [6]: inactive
COc1cc2c(cc1OC)C1(c3cc(OC)c(OC)cc3C2=O)c2cc(OC)c(OC)cc2C(=O)N1/N=C/c1ccc(N(C)C)cc1,122 µM,,≥ 90%,inactive,inactive,,
COc1cc2c(cc1OC)C1(c3cc(OC)c(OC)cc3C2=O)c2cc(OC)c(OC)cc2C(=O)N1/N=C/c1cc(OC)c(O)c(OC)c1,> 100 µM,Dose-Dependent Effect,≥ 90%,,,5.052 log10FFU/ml,Activity [3]: inactive; Activity [4]: >=1 log10CFU; Activity [5]: 3.994 log10FFU/ml; Activity [6]: inactive
COc1cc(/C=N/N2C(=O)c3cc(OC)c(OC)cc3C23c2cc(OC)c(OC)cc2C(=O)c2cc(OC)c(OC)cc23)ccc1O,113 µM,Dose-Dependent Effect,≥ 90%,inactive,inactive,5.23 log10FFU/ml,Activity [11]: >=1 log10CFU
COc1cc2c(cc1OC)C1(c3cc(OC)c(OC)cc3C2=O)c2cc(OC)c(OC)cc2C(=O)N1NC(=O)c1cc(C(F)(F)F)cc(C(F)(F)F)c1,98.9 µM,,≥ 90%,inactive,inactive,,Activity [12]: Dose-Dependent Effect; Activity [13]: >=1 log10CFU
COc1cc2c(cc1OC)C1(c3cc(OC)c(OC)cc3C2=O)c2cc(OC)c(OC)cc2C(=O)N1/N=C/c1cc(OC)c(OC)c(OC)c1,99.8 µM,Dose-Dependent Effect,≥ 90%,inactive,inactive,4.098 log10FFU/ml,Activity [12]: Dose-Dependent Effect; Activity [11]: >=1 log10CFU; Activity [14]: 5.064 log10FFU/ml; Activity [13]: >=1 log10CFU
COc1cc2c(cc1OC)C1(c3cc(OC)c(OC)cc3C2=O)c2cc(OC)c(OC)cc2C(=O)N1/N=C/c1c2ccccc2cc2ccccc12,352 µM,,≥ 90%,inactive,inactive,,
COc1cc2c(cc1OC)C1(c3cc(OC)c(OC)cc3C2=O)c2cc(OC)c(OC)cc2C(=O)N1/N=C/c1ccc2ccccc2n1,100 µM,,≥ 90%,,,,Activity [15]: inactive; Activity [16]: inactive
COc1cc2c(cc1OC)C1(c3cc(OC)c(OC)cc3C2=O)c2cc(OC)c(OC)cc2C(=O)N1NC(=O)c1ccc([N+](=O)[O-])cc1,97.3 µM,,≥ 90%,inactive,inactive,,
COc1cc2c(cc1OC)C1(c3cc(OC)c(OC)cc3C2=O)c2cc(OC)c(OC)cc2C(=O)N1/N=C/c1ccc(Br)cc1,181 µM,Dose-Dependent Effect,≥ 90%,inactive,inactive,5.431 log10FFU/ml,Activity [11]: >=1 log10CFU
COc1cc2c(cc1OC)C1(c3cc(OC)c(OC)cc3C2=O)c2cc(OC)c(OC)cc2C(=O)N1/N=C/c1cccs1,52.7 µM,,≥ 90%,,,,Activity [17]: inactive; Activity [18]: inactive
COc1cc2c(cc1OC)C1(c3cc(OC)c(OC)cc3C2=O)c2cc(OC)c(OC)cc2C(=O)N1/N=C/c1ccccc1O,173 µM,,≥ 90%,,,,Activity [19]: Dose-Dependent Effect; Activity [20]: 4.101 log10FFU/ml; Activity [21]: inactive; Activity [22]: inactive
